The numbers were not newly measured in patent publication US10780114B2, “Therapeutic agent for skin wound or rough skin” (JFE MINERAL COMPANY, LTD., priority 2015, dated 2020), which cites them from elsewhere.

SMILES strings stand for the structures.

In one series the test system is skin. As to conditions: in vivo.

Turning to `[Zn+2]` [zinc ions], the “Zinc ion level leading to increased inflammatory cell infiltration in skin and remarkably delayed reepithelization” value in the series on skin was “not less than 15 mmol/L”. Also, the “Zinc ion concentration that does not exhibit toxicity to a fibroblast” value in the series with fibroblast is recorded as “not more than 500 μmol/L”.
